Results on four compounds are retold here after publication PMC5564600 (Oncotarget, 2017).

Molecules are shown by their SMILES.

Holding throughout (experiment): biochemical
Holding throughout (format): binding

For test [1], the target named is T1, panel of 442 kinases (Homo sapiens, UniProt P54762).
T1 construct: purchased Ambit Biosciences (scanMAXX KINOMEscan)
T1 sequence (P54762 18-984): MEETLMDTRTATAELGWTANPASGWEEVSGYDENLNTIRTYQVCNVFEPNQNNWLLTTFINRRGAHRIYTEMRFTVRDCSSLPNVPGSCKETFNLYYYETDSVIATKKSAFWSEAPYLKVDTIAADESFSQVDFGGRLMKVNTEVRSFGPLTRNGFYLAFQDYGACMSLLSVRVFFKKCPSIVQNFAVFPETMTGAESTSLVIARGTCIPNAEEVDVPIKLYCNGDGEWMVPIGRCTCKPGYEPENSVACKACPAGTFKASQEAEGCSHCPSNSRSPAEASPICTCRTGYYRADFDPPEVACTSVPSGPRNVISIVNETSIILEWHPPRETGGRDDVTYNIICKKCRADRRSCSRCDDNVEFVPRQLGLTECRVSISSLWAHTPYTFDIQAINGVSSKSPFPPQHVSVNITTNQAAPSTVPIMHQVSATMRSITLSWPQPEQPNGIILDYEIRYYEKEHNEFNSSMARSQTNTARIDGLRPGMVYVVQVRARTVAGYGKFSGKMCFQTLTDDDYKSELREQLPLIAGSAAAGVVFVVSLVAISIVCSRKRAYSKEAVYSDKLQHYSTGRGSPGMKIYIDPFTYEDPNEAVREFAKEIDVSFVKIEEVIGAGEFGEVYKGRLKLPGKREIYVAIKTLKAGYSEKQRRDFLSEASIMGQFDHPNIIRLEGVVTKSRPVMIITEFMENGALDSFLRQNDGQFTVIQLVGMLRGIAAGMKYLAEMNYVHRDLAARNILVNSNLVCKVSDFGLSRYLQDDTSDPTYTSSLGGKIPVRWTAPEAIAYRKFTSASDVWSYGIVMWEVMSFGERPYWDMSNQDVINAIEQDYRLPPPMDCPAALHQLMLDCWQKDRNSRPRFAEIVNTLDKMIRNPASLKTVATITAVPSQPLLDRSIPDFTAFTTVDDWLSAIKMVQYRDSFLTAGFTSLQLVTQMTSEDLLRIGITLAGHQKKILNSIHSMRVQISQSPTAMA
The settings on record: EPHB1; for remaining activity at 1 µM: read-out: % of control at 1 µM.

Test [2] addresses T2, panel of 442 kinases (Homo sapiens, UniProt P36888, N841I).
T2 construct: purchased Ambit Biosciences (scanMAXX KINOMEscan)
T2 sequence (P36888 27-993 N841I): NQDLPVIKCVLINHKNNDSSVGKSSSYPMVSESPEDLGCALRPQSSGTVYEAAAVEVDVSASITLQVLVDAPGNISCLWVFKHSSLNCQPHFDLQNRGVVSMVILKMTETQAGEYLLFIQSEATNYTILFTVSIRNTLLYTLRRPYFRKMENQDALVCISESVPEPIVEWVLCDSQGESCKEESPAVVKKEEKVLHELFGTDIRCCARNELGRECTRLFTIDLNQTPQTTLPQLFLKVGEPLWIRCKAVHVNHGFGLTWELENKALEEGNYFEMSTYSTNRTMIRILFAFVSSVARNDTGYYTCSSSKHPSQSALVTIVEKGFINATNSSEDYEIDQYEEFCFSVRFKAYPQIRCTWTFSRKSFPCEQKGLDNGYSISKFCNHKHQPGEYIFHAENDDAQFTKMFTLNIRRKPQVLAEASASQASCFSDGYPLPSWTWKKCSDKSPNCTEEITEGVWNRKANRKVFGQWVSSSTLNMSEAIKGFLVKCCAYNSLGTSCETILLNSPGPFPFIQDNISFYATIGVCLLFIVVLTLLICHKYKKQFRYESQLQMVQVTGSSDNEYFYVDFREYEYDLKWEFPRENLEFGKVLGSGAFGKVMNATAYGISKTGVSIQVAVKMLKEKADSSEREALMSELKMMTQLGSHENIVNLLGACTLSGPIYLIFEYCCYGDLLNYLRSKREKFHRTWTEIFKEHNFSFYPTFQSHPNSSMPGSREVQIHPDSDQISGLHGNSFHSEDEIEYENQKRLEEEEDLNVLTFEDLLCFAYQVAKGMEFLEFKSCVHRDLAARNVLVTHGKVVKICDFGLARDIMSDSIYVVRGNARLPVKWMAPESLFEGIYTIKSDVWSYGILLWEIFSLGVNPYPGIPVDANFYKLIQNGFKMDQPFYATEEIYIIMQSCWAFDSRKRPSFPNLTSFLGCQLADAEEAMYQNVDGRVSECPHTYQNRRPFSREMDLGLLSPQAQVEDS
The note with it: kinase FLT3(N841I); for remaining activity at 1 µM: read-out: % of control at 1 µM.

Test [3] concerns the target T3, panel of 442 kinases (Homo sapiens, UniProt O14757).
T3 construct: purchased Ambit Biosciences (scanMAXX KINOMEscan)
T3 sequence (O14757 1-476): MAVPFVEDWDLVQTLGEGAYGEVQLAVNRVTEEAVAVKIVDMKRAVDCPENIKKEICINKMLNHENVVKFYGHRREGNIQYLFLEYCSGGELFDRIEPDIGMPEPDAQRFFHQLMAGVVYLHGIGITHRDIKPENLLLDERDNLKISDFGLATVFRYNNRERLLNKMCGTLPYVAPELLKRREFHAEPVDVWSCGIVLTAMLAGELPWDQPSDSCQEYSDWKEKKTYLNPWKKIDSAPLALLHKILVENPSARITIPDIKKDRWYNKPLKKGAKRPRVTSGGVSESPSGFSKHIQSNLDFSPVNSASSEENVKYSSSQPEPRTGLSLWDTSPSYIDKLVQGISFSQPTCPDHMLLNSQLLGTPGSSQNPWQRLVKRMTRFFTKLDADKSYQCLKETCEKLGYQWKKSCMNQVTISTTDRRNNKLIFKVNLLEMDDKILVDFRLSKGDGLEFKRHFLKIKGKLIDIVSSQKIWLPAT
The note with it: CHEK1; for remaining activity at 1 µM: read-out: % of control at 1 µM.

The target in test [4] is T4, panel of 442 kinases (Homo sapiens, UniProt P22607, G697C).
T4 construct: purchased Ambit Biosciences (scanMAXX KINOMEscan)
The settings on record: FGFR3(G697C); for remaining activity at 1 µM: read-out: % of control at 1 µM.

[5] abbreviates: 10 µM, read-out: % of control at 10 µM.

T4 sequence (P22607 23-806 G697C): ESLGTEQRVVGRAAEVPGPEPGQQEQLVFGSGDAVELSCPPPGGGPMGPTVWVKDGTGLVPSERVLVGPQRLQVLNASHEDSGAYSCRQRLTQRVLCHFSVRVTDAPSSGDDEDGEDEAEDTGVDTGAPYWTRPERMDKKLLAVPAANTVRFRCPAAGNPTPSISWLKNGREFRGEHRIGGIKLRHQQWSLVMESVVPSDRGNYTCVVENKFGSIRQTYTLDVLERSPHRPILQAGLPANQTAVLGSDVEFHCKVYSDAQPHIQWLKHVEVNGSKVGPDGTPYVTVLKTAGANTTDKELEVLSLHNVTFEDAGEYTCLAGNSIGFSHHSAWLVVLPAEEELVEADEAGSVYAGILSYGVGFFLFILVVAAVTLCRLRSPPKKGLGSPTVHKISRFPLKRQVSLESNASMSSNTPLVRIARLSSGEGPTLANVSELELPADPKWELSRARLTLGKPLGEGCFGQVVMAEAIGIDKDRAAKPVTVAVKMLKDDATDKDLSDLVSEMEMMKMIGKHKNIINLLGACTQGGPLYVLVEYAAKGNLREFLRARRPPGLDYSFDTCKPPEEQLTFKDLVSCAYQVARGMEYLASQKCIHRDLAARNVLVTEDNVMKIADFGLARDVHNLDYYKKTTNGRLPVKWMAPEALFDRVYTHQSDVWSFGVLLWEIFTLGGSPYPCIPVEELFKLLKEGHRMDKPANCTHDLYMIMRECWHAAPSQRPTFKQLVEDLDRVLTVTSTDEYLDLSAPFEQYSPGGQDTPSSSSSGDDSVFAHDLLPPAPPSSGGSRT

As for `Nc1cc(C(F)(F)F)c(-c2cc(N3CCOCC3)nc(N3CCOCC3)n2)cn1` [Buparlisib], the remaining activity at 1 µM came out at 88% in test [1], 86% in test [2], 79% in test [3] and 86% in test [4]. For the same compound, the remaining activity at 10 µM is 100% in test [1] (setting [5]), 97% in test [2] (setting [5]), 82% in test [3] (setting [5]) and 100% in test [4] (setting [5]).
Regarding `Cn1c(=O)n(-c2ccc(C(C)(C)C#N)cc2)c2c3cc(-c4cnc5ccccc5c4)ccc3ncc21` [Dactolisib, 2-methyl-2-[4-(3-methyl-2-oxo-8-quinolin-3-yl-2,3-dihydroimidazo[4,5-c]quinolin-1-yl)-phenyl] propionitrile], the remaining activity at 1 µM in test [1] amounted to 100%; in test [2], 24%; in test [3], 100%; in test [4], 90%.
In the case of `COc1ncc(-c2ccc3nccc(-c4ccnnc4)c3c2)cc1NS(=O)(=O)c1ccc(F)cc1F` [Omipalisib], the remaining activity at 1 µM in test [1] came to 100%; in test [2], 70%; in test [3], 100%; in test [4], 68%.
`FC(F)c1nc2ccccc2n1-c1nc(N2CCOCC2)nc(N2CCOCC2)n1` [ZSTK474, 2-(difluoromethyl)-1-[4,6-di(4-morpholinyl)-1,3,5-triazin-2-yl]-1H-benzimidazole]: the remaining activity at 1 µM in test [1] was found to be 99%; in test [2], 90%; in test [3], 92%; in test [4], 100%.
